In PMC2948407 (Journal of the American Chemical Society, 2010) one finds Kd data, which are given here for one compound.

The target of the assay is T1, HasAp (Pseudomonas aeruginosa, UniProt O69756, H32A).
T1 sequence (O69756 1-184 H32A): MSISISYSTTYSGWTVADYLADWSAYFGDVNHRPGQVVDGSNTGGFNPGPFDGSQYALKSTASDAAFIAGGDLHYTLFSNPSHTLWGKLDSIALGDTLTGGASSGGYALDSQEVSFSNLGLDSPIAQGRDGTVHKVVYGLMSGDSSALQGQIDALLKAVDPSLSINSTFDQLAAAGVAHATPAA
Nature of the assay: UV-vis titration. It counts as binding.

In turn, `c1c[nH]cn1` [imidazole] gave a dissociation constant (Kd) of 4.7 mM.
